Source: ChEMBL document CHEMBL1155360, “Structural characteristics of flavanones and flavones from Cudrania tricuspidata for neuraminidase inhibition” (Bioorg Med Chem Lett, 2009)

Tests used:
Clostridium perfringens = experiment: (§1) Inhibition of Clostridium welchii neuraminidase
[1] = as §1; set-up: species or system Clostridium perfringens
[2] = Noncompetitive inhibition of Clostridium welchii neuraminidase by Dixon plot; set-up: species or system Clostridium perfringens

## CC(C)(O)CCc1c(O)cc(O)c2c1O[C@H](c1cc3c(cc1O)OC(C)(C)C=C3)CC2=O
Clostridium perfringens
  inhibition: Dose-dependent effect
[1]
  IC50: 0.38 µM
[2]
  Ki: 0.19 µM

## CC(C)=CCc1cc([C@@H]2CC(=O)c3c(cc(O)c(CC=C(C)C)c3O)O2)c(O)cc1O
Clostridium perfringens
  inhibition: Dose-dependent effect
[1]
  IC50: 10.7 µM
[2]
  Ki: 7.16 µM

## CC1(C)C=Cc2c(cc3oc(-c4ccc(O)cc4O)cc(=O)c3c2O)O1
Clostridium perfringens
  inhibition: Dose-dependent effect
[1]
  IC50: 6.01 µM

## O=C1C[C@@H](c2ccc(O)cc2O)Oc2cc(O)cc(O)c21
Clostridium perfringens
  inhibition: Dose-dependent effect
[1]
  IC50: 8.14 µM
[2]
  Ki: 7.2 µM

## O=c1cc(-c2ccc(O)cc2)oc2cc(O)cc(O)c12 [APIGENIN]
Clostridium perfringens
  inhibition: Dose-dependent effect
[1]
  IC50: 22.1 µM

## CC(C)=CCc1c(O)cc2c(c1O)C(=O)C[C@@H](c1cc3c(cc1O)OC(C)(C)C=C3)O2 [CUDRAFLAVANONE A]
Clostridium perfringens
  inhibition: Dose-dependent effect
[1]
  IC50: 1.53 µM
[2]
  Ki: 2.01 µM

## CC(C)=CC1Oc2cc(O)ccc2-c2oc3cc4c(c(O)c3c(=O)c21)C=CC(C)(C)O4 (stereo not drawn) [CUDRAFLAVONE A]
Clostridium perfringens
  inhibition: Dose-dependent effect
[1]
  IC50: 29 µM
[2]
  Ki: 44.4 µM

## CC(C)=CCc1c(-c2ccc(O)cc2O)oc2cc3c(c(O)c2c1=O)C=CC(C)(C)O3 [CUDRAFLAVONE B]
Clostridium perfringens
  inhibition: Dose-dependent effect
[1]
  IC50: 10.1 µM
[2]
  Ki: 10.8 µM

## O=C1C[C@@H](c2ccc(O)c(O)c2)Oc2cc(O)cc(O)c21 [ERIODICTYOL]
Clostridium perfringens
  inhibition: Dose-dependent effect
[1]
  IC50: 16 µM

## O=c1cc(-c2ccc(O)c(O)c2)oc2cc(O)cc(O)c12 [LUTEOLIN]
Clostridium perfringens
  inhibition: Dose-dependent effect
[1]
  IC50: 4.6 µM

## O=c1c2cc(O)c(O)cc2oc2cc(O)c([C@@H]3O[C@H](CO)[C@@H](O)[C@H](O)[C@H]3O)c(O)c12 [MANGIFERIN]
Clostridium perfringens
  inhibition: Dose-dependent effect
[1]
  IC50: 11.2 µM

## O=C1C[C@@H](c2ccc(O)cc2)Oc2cc(O)cc(O)c21 [NARINGENIN]
Clostridium perfringens
  inhibition: Dose-dependent effect
[1]
  IC50: 57.9 µM

## O=c1cc(-c2ccc(O)cc2O)oc2cc(O)cc(O)c12 [NORARTOCARPETIN]
Clostridium perfringens
  inhibition: Dose-dependent effect
[1]
  IC50: 1.13 µM
[2]
  Ki: 1.96 µM
